≈ marks a conversion by molar mass, not a printed value.
How the values were obtained:
Format in all cases: functional
Staphylococcus aureus [1] = assay: Antimicrobial activity against Staphylococcus aureus assessed as zone of inhibition at 50 ug/well after 24 hrs by agar well diffusion method; conditions: read-out: DIZ
Staphylococcus aureus [2] = assay: Antimicrobial activity against Staphylococcus aureus assessed as zone of inhibition at 75 ug/well after 24 hrs by agar well diffusion method; conditions: read-out: DIZ
Staphylococcus aureus [3] = assay: Antimicrobial activity against Staphylococcus aureus assessed as zone of inhibition at 100 ug/well after 24 hrs by agar well diffusion method; conditions: read-out: DIZ
Bacillus subtilis [4] = assay: Antimicrobial activity against Bacillus subtilis assessed as zone of inhibition at 50 ug/well after 24 hrs by agar well diffusion method; conditions: read-out: DIZ
Bacillus subtilis [5] = assay: Antimicrobial activity against Bacillus subtilis assessed as zone of inhibition at 75 ug/well after 24 hrs by agar well diffusion method; conditions: read-out: DIZ
Bacillus subtilis [6] = assay: Antimicrobial activity against Bacillus subtilis assessed as zone of inhibition at 100 ug/well after 24 hrs by agar well diffusion method; conditions: read-out: DIZ
Pseudomonas aeruginosa [7] = assay: Antimicrobial activity against Pseudomonas aeruginosa assessed as zone of inhibition at 50 ug/well after 24 hrs by agar well diffusion method; conditions: read-out: DIZ
Pseudomonas aeruginosa [8] = assay: Antimicrobial activity against Pseudomonas aeruginosa assessed as zone of inhibition at 75 ug/well after 24 hrs by agar well diffusion method; conditions: read-out: DIZ
Pseudomonas aeruginosa [9] = assay: Antimicrobial activity against Pseudomonas aeruginosa assessed as zone of inhibition at 100 ug/well after 24 hrs by agar well diffusion method; conditions: read-out: DIZ
Klebsiella pneumoniae [10] = assay: Antimicrobial activity against Klebsiella pneumoniae assessed as zone of inhibition at 50 ug/well after 24 hrs by agar well diffusion method; conditions: read-out: DIZ
Klebsiella pneumoniae [11] = assay: Antimicrobial activity against Klebsiella pneumoniae assessed as zone of inhibition at 75 ug/well after 24 hrs by agar well diffusion method; conditions: read-out: DIZ
Klebsiella pneumoniae [12] = assay: Antimicrobial activity against Klebsiella pneumoniae assessed as zone of inhibition at 100 ug/well after 24 hrs by agar well diffusion method; conditions: read-out: DIZ
Aspergillus niger [13] = assay: Antifungal activity against Aspergillus niger assessed as zone of inhibition at 50 ug/well after 48 hrs by agar well diffusion method; conditions: read-out: DIZ
Aspergillus niger [14] = assay: Antifungal activity against Aspergillus niger assessed as zone of inhibition at 75 ug/well after 48 hrs by agar well diffusion method; conditions: read-out: DIZ
Aspergillus niger [15] = assay: Antifungal activity against Aspergillus niger assessed as zone of inhibition at 100 ug/well after 48 hrs by agar well diffusion method; conditions: read-out: DIZ
Penicillium chrysogenum [16] = assay: Antifungal activity against Penicillium chrysogenum assessed as zone of inhibition at 50 ug/well after 48 hrs by agar well diffusion method; conditions: read-out: DIZ
Penicillium chrysogenum [17] = assay: Antifungal activity against Penicillium chrysogenum assessed as zone of inhibition at 75 ug/well after 48 hrs by agar well diffusion method; conditions: read-out: DIZ
Penicillium chrysogenum [18] = assay: Antifungal activity against Penicillium chrysogenum assessed as zone of inhibition at 100 ug/well after 48 hrs by agar well diffusion method; conditions: read-out: DIZ
Staphylococcus aureus [19] = assay: Antimicrobial activity against Staphylococcus aureus after 24 hrs by broth dilution test
Bacillus subtilis [20] = assay: Antimicrobial activity against Bacillus subtilis after 24 hrs by broth dilution test
Pseudomonas aeruginosa [21] = assay: Antimicrobial activity against Pseudomonas aeruginosa after 24 hrs by broth dilution test
Klebsiella pneumoniae [22] = assay: Antimicrobial activity against Klebsiella pneumoniae after 24 hrs by broth dilution test
Aspergillus niger [23] = assay: Antifungal activity against Aspergillus niger after 48 hrs by broth dilution test
Penicillium chrysogenum [24] = assay: Antifungal activity against Penicillium chrysogenum after 48 hrs by broth dilution test
Staphylococcus aureus [25] = assay: Bactericidal activity against Staphylococcus aureus incubated for 24 hrs followed by replating on sterile nutrient broth and incubated for 24 hrs by broth dilution test
Bacillus subtilis [26] = assay: Bactericidal activity against Bacillus subtilis incubated for 24 hrs followed by replating on sterile nutrient broth and incubated for 24 hrs by broth dilution test
Pseudomonas aeruginosa [27] = assay: Bactericidal activity against Pseudomonas aeruginosa incubated for 24 hrs followed by replating on sterile nutrient broth and incubated for 24 hrs by broth dilution test
Klebsiella pneumoniae [28] = assay: Bactericidal activity against Klebsiella pneumoniae incubated for 24 hrs followed by replating on sterile nutrient broth and incubated for 24 hrs by broth dilution test
Aspergillus niger [29] = assay: Fungicidal activity against Aspergillus niger incubated for 48 hrs followed by replating on PDA and incubated for 48 hrs by broth dilution test
Penicillium chrysogenum [30] = assay: Fungicidal activity against Penicillium chrysogenum incubated for 48 hrs followed by replating on PDA and incubated for 48 hrs by broth dilution test

O=C(NS(=O)(=O)/C=C/c1ccc([N+](=O)[O-])cc1)c1ccc(Cl)s1
zone of inhibition at 50 µg/disc (Staphylococcus aureus [1]): 21 mm
zone of inhibition at 75 µg/disc (Staphylococcus aureus [2]): 24 mm
zone of inhibition at 100 µg/disc (Staphylococcus aureus [3]): 26 mm
zone of inhibition at 50 µg/disc (Bacillus subtilis [4]): 31 mm
zone of inhibition at 75 µg/disc (Bacillus subtilis [5]): 34 mm
zone of inhibition at 100 µg/disc (Bacillus subtilis [6]): 38 mm
zone of inhibition at 50 µg/disc (Pseudomonas aeruginosa [7]): 19 mm
zone of inhibition at 75 µg/disc (Pseudomonas aeruginosa [8]): 21 mm
zone of inhibition at 100 µg/disc (Pseudomonas aeruginosa [9]): 24 mm
zone of inhibition at 50 µg/disc (Klebsiella pneumoniae [10]): 27 mm
zone of inhibition at 75 µg/disc (Klebsiella pneumoniae [11]): 29 mm
zone of inhibition at 100 µg/disc (Klebsiella pneumoniae [12]): 33 mm
zone of inhibition at 50 µg/disc (Aspergillus niger [13]): 27 mm
zone of inhibition at 75 µg/disc (Aspergillus niger [14]): 29 mm
zone of inhibition at 100 µg/disc (Aspergillus niger [15]): 31 mm
zone of inhibition at 50 µg/disc (Penicillium chrysogenum [16]): 24 mm
zone of inhibition at 75 µg/disc (Penicillium chrysogenum [17]): 26 mm
zone of inhibition at 100 µg/disc (Penicillium chrysogenum [18]): 28 mm
MIC (Staphylococcus aureus [19]): 50 µg/mL (≈ 134 µM)
MIC (Bacillus subtilis [20]): 6.25 µg/mL (≈ 16.8 µM)
MIC (Pseudomonas aeruginosa [21]): 25 µg/mL (≈ 67.1 µM)
MIC (Klebsiella pneumoniae [22]): 25 µg/mL (≈ 67.1 µM)
MIC (Aspergillus niger [23]): 25 µg/mL (≈ 67.1 µM)
MIC (Penicillium chrysogenum [24]): 100 µg/mL (≈ 268 µM)
MBC (Staphylococcus aureus [25]): 200 µg/mL (≈ 536 µM)
MBC (Bacillus subtilis [26]): 12.5 µg/mL (≈ 33.5 µM)
MBC (Pseudomonas aeruginosa [27]): 100 µg/mL (≈ 268 µM)
MBC (Klebsiella pneumoniae [28]): 100 µg/mL (≈ 268 µM)
MFC (Aspergillus niger [29]): 100 µg/mL (≈ 268 µM)
MFC (Penicillium chrysogenum [30]): > 200 µg/mL

— ChEMBL document CHEMBL4251595, “Green approach for the synthesis of thiophenyl pyrazoles and isoxazoles by adopting 1,3-dipolar cycloaddition methodology and their antimicrobial activity” (2018)
